# Experimental data from patent publication US20170217982A1, “Compound isolated from Pseudolysimachion rotundum var. subintegrum, the composition comprising the same for treating allergic disease, inflammatory disease, asthma or chronic obstructive pulmonary disease and the use thereof” (YUNGJIN PHARMACEUTICAL CO., LTD, priority 2014, published 2017).
# System: asthma-induced animal model (OVA)
# Assay: Anti-asthma activity in OVA-sensitized/challenged mouse model
# Assay type: in vivo, BALB/c mice
# Conditions: OVA asthma mice
# Protocol: In order to determine the anti-asthma activity of test sample in asthma-induced animal model, following test was performed by the method disclosed in the literature (Shin, I. S. et al., Food Chem. Toxicol., 2013, 62, 506-513)
# Specific pathogen-free female BALB/c mice (about 20 g), aged 6 weeks, which were routinely screened serologically for relevant respiratory pathogens, were purchased from Samtako Co. (Seoul, Korea) and acclimated with the experimental environment under the condition controlling the temperature of 22±2° C., and relative humidity of 55±15%, at light/dark cycle for 1 week prior to experiment.
# Briefly, mice were sensitized by intraperitoneal injection of 20 μg OVA (Ovalbumin; A5503, Sigma, St. Louis, Mo.), which was emulsified in 2 mg aluminum hydroxide (A8222, Sigma-Aldrich, MO. USA) in 200 μl of PBS buffer (pH 7.4), biweekly. The mice were challenged through the airways with OVA (1% in PBS) for 30 min using an ultrasonic nebulizer (NE-U12; Omron Corp., Tokyo, Japan) from the 21st day to 23rd day after the initial sensitization. 24 hrs after the antigen treatment, the airway hyperresponsiveness was determined and the mice were sacrificed 48 hrs after the last challenge. The mice were sacrificed with an overdose of pentobarbital (50 mg/kg, Entobal®, Hanil, Korea) 48 h after the last challenge, and a tracheotomy was performed. After 1.4 ml of physiological saline solution (PBS) was instilled into the lungs, bronchoalveolar lavage fluid (BALF) was obtained by aspiration three times via tracheal cannulation.
# The groups were divided into several groups, i.e., (a) normal control group(NC): the groups treated or not-treated with OVA; (b) asthma-induced group(OVA): the groups treated with OVA to induce asthma; and (c) comparative group: the groups treated with positive control group (M30, montelukast; 30 mg/kg, PO, Sigma-Aldrich Co. Ltd., SML-0101+OVA) and (d) test sample group: the groups treated with KS534 compound (30 mg/kg, PO, Sigma-Aldrich Co. Ltd., SML-0101+OVA).
# The test group consists of 7 mice for each group and various concentrations of the test sample were orally administrated to the mice from 21st to 23rd day after ^1st OVA treatment.
# All the result obtained from various experiments was recorded as mean±SD (standard deviation), and the comparison between each group was determined using by one-way ANOVA test using by SPSS 10.0 program. The statistic significance between each group was determined according to Dunnett's multiple comparison tests as a post-hoc test). The result was expressed as P values: <0.05 (*) as statistically significant. […]
# BALF was loaded onto a slide and centrifuged to fix the cells onto the slide using a Cellspin machine (Cyto12.5+clip5, Hanil Science Industrial, Korea). The cells were stained by Diff-Quick® Stain reagents (Sysmex, Cat No. 38721, Switzerland) according to the manufacturer's instructions and the number of inflammatory cells in each sample was counted by microscope (×400).
# In order to confirm the inhibition effect of test samples on the level of Th2 cytokines (IL-4, IL-5 and IL-13) in bronchoalveolar lavage fluid (BALF), the level of Th2 cytokines (IL-4, IL-5 and IL-13) in bronchoalveolar lavage fluid (BALF) was determined using by ELISA kit (VersaMax, Molecular Devices, USA) specifically reacting with each cytokine according to the manufacture's manual. […]
smiles,measurement,setting,value
"O=C(CO)O[C@@H]1O[C@@H]2C[C@H]3[C@H](OC(=O)c4ccc(O)c(O)c4)[C@@H](Cl)[C@@](O)(CO2)[C@@H]13 [KS-534, (3R,5S,5aS,6R,7S,8R,8aS)-8-chloro-8a-hydroxy-5-(2-hydroxyacetoxy) hexahydro-1H-3,6-methanocyclopenta[e][1,3]dioxepin-7-yl3,4-dihydroxybenzoate]","level of Th2 cytokines (IL-4, IL-5 and IL-13) in BALF","30 mg/kg PO, ELISA, vs OVA group (FIG. 6)",significantly reduced
same,level of IgE and OVA-specific IgE in blood serum,"30 mg/kg PO, ELISA, vs OVA group (FIG. 7)",significantly reduced
same,invasion of the inflamed cells in lung tissue (H&E histology),"30 mg/kg PO, vs OVA group (FIG. 8)",significantly reduced
same,mucosal secretion from the goblet cell of bronchial epithelial cells in lung tissue (PAS),"30 mg/kg PO, vs OVA group (FIG. 9)",significantly reduced
same,total number of eosinophil and inflammatory cells in BALF,"oral, vs OVA group (FIG. 5)",effectively inhibited
